Experimental data as given in patent US20230241232A1, “Size-Dependent Brain and Lymphatic Distribution of Macromolecular Drug Delivery Platform” (The United States of America, As Represented by the …, priority 2020, published 2023).

Biological target: T1, scavenger receptor A (Mus musculus, UniProt P30204)
T1 construct: endogenous in cells; host or cells: Raw 264.7 macrophages
T1 sequence (P30204 1-458): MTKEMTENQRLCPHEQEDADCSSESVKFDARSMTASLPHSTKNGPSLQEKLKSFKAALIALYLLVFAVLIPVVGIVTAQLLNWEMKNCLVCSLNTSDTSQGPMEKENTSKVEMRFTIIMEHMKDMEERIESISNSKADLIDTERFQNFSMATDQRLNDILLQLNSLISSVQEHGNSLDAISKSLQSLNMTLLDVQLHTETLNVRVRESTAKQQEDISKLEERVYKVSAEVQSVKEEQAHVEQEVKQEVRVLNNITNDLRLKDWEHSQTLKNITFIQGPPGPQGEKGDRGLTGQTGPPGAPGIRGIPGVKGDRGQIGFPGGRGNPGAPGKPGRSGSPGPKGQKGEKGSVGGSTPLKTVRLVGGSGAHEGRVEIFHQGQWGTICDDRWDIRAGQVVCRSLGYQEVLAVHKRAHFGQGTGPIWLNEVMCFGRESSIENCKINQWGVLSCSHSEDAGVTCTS
Test: Competitive inhibition of polymer-488 cell uptake by poly I / poly C in Raw 264.7 macrophages
Format: cell-based
Details: for inhibition of polymer-488 fluorescence (% control): Raw 264.7 cells, various inhibitor concentrations, polymer-488 constant, 37° C. 3 hours, FIG. 4; for inhibition of scavenger receptor interaction of polymer-488 (fluorescence): Raw 264.7 macrophages, various concentrations of polymer-488, with or without inhibitor, FIG. 3
Description: The fluorescently labelled poly(L-lysine succinylated) was also tested for cell uptake in a macrophage cell line Raw 264.7 in the presence of competitive inhibitors and relevant controls. […] At higher concentrations of polymer-488, fluorescence is seen due to competing off the poly I.
In a follow up study, cells were treated with various concentrations of either poly I or poly C while polymer-488 concentration remained constant. In this study, Raw 264.7 cells were incubated overnight at 400,000 cells/mL. The cells were then treated with various concentrations of polymer-488 and either 200 μg/mL poly I, 200 μg/mL poly C, or no inhibitor. The cells were incubated at 37° C. for 3 hours, washed 3 times with media, and fluorescence measured.

## polycytidylic acid [poly C]
  inhibition of polymer-488 fluorescence (% control): virtually no inhibition of fluorescence
  inhibition of scavenger receptor interaction of polymer-488 (fluorescence): not with poly C

## polyinosinic acid [poly I]
  inhibition of polymer-488 fluorescence (% control): dose-dependent inhibition
  inhibition of scavenger receptor interaction of polymer-488 (fluorescence): inhibition of scavenger receptor interaction
